Assay results as given in ChEMBL document CHEMBL1201862, “PubChem BioAssay data set” (2004).
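Five concentrations, 48 hours, 96-well plates. GI50 marks 50% less growth.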 The source made the active and inactive calls. Rule as the data show it: active = GI50 up to about 1.1 µM and inactive = higher.

What was measured:
Test in all cases: NCI anticancer screen, dose series, 48 h
LXFL 529 = test system: LXFL 529
DMS-114 = test system: DMS-114
COLO 205 = test system: COLO 205
NCI-H23 = test system: NCI-H23
SN12C = test system: SN12C
TK-10 = test system: TK-10
SNB-75 = test system: SNB-75
IGROV-1 = test system: IGROV-1
A549 = test system: A549
786-0 = test system: 786-0
EKVX = test system: EKVX
CAKI-1 = test system: CAKI-1
HCC 2998 = test system: HCC 2998
SR = test system: SR
SF-295 = test system: SF-295
UACC-62 = test system: UACC-62
LOX IMVI = test system: LOX IMVI
SNB-78 = test system: SNB-78
SK-MEL-2 = test system: SK-MEL-2
SF-539 = test system: SF-539
HOP-92 = test system: HOP-92
SNB-19 = test system: SNB-19
HL-60 = test system: HL-60
OVCAR-8 = test system: OVCAR-8
UACC-257 = test system: UACC-257
Malme-3M = test system: Malme-3M
SK-OV-3 = test system: SK-OV-3
RPMI-8226 = test system: RPMI-8226
M14 = test system: M14
CCRF-CEM = test system: CCRF-CEM
M19-MEL = test system: M19-MEL
OVCAR-4 = test system: OVCAR-4
OVCAR-5 = test system: OVCAR-5
A498 = test system: A498
NCI-H460 = test system: NCI-H460
SF-268 = test system: SF-268
HCT-15 = test system: HCT-15
K562 = test system: K562
UO-31 = test system: UO-31
KM-20L2 = test system: KM-20L2
SK-MEL-5 = test system: SK-MEL-5
SK-MEL-28 = test system: SK-MEL-28
MOLT-4 = test system: MOLT-4
HT-29 = test system: HT-29
U-251 = test system: U-251
OVCAR-3 = test system: OVCAR-3
KM12 = test system: KM12
HOP-18 = test system: HOP-18
HCT-116 = test system: HCT-116
DMS-273 = test system: DMS-273
ACHN = test system: ACHN
SW-620 = test system: SW-620
RXF 393 = test system: RXF 393
NCI-H226 = test system: NCI-H226
HOP-62 = test system: HOP-62
NCI-H522 = test system: NCI-H522
DLD-1 = test system: DLD-1
XF498 = test system: XF498

## CCc1cc(Cc2cc(Cl)c(NC(=O)C(=O)C3NC(=O)NC3=O)c(CC)c2)cc(Cl)c1NC(=O)C(=O)C1NC(=O)NC1=O (stereo not given)
LXFL 529
  GI50: 45.1 µM (inactive)
DMS-114
  GI50: 26.9 µM (inactive)
COLO 205
  GI50: 57.8 µM (inactive)
NCI-H23
  GI50: 26.6 µM (inactive)
SN12C
  GI50: 50.8 µM (inactive)
TK-10
  GI50: > 100 µM (inactive)
SNB-75
  GI50: 30.9 µM (inactive)
IGROV-1
  GI50: > 100 µM (inactive)
A549
  GI50: 75 µM (inactive)
786-0
  GI50: 42.7 µM (inactive)
EKVX
  GI50: > 100 µM (inactive)
CAKI-1
  GI50: > 100 µM (inactive)
HCC 2998
  GI50: 42.8 µM (inactive)
SR
  GI50: 37.2 µM (inactive)
SF-295
  GI50: 51.4 µM (inactive)
UACC-62
  GI50: 46.7 µM (inactive)
LOX IMVI
  GI50: 31.8 µM (inactive)
SNB-78
  GI50: 75.7 µM (inactive)
SK-MEL-2
  GI50: > 100 µM (inactive)
SF-539
  GI50: 35.1 µM (inactive)
HOP-92
  GI50: > 100 µM (inactive)
SNB-19
  GI50: 36.9 µM (inactive)
HL-60
  GI50: 35.2 µM (inactive)
OVCAR-8
  GI50: 21.4 µM (inactive)
UACC-257
  GI50: 30.6 µM (inactive)
Malme-3M
  GI50: > 100 µM (inactive)
SK-OV-3
  GI50: 33.9 µM (inactive)
RPMI-8226
  GI50: 26.4 µM (inactive)
M14
  GI50: 48.5 µM (inactive)
CCRF-CEM
  GI50: 34.5 µM (inactive)
M19-MEL
  GI50: 51.3 µM (inactive)
OVCAR-4
  GI50: > 100 µM (inactive)
OVCAR-5
  GI50: > 100 µM (inactive)
A498
  GI50: > 100 µM (inactive)
NCI-H460
  GI50: 36.1 µM (inactive)
SF-268
  GI50: 20.7 µM (inactive)
HCT-15
  GI50: 17.3 µM
K562
  GI50: 37.2 µM (inactive)
UO-31
  GI50: > 100 µM (inactive)
KM-20L2
  GI50: 33.9 µM (inactive)
SK-MEL-5
  GI50: > 100 µM (inactive)
SK-MEL-28
  GI50: 37.5 µM (inactive)
MOLT-4
  GI50: 66.5 µM (inactive)
HT-29
  GI50: 26.1 µM (inactive)
U-251
  GI50: 17.1 µM (inactive)
OVCAR-3
  GI50: 36.8 µM (inactive)
KM12
  GI50: > 100 µM (inactive)
HOP-18
  GI50: > 100 µM (inactive)
HCT-116
  GI50: 31.3 µM (inactive)
DMS-273
  GI50: 20.4 µM (inactive)
ACHN
  GI50: 94.4 µM (inactive)
SW-620
  GI50: 8.47 µM (inactive)
RXF 393
  GI50: 22.9 µM (inactive)
NCI-H226
  GI50: > 100 µM (inactive)
HOP-62
  GI50: > 100 µM (inactive)

## O=c1c2ccccc2nc(-c2ccccc2)n1NCC1(O)OCC(O)C(O)C1O (stereo not given)
LXFL 529
  GI50: > 100 µM (inactive)
DMS-114
  GI50: > 100 µM (inactive)
COLO 205
  GI50: > 100 µM (inactive)
NCI-H23
  GI50: > 100 µM (inactive)
SN12C
  GI50: > 100 µM (inactive)
TK-10
  GI50: > 100 µM (inactive)
SNB-75
  GI50: 50 µM (inactive)
NCI-H522
  GI50: > 100 µM (inactive)
IGROV-1
  GI50: > 100 µM (inactive)
A549
  GI50: 81.3 µM (inactive)
786-0
  GI50: > 100 µM (inactive)
EKVX
  GI50: > 100 µM (inactive)
CAKI-1
  GI50: 47.3 µM (inactive)
HCC 2998
  GI50: > 100 µM (inactive)
SF-295
  GI50: 49.2 µM (inactive)
DLD-1
  GI50: > 100 µM (inactive)
UACC-62
  GI50: > 100 µM (inactive)
SNB-78
  GI50: > 100 µM (inactive)
SK-MEL-2
  GI50: > 100 µM (inactive)
SF-539
  GI50: > 100 µM (inactive)
HOP-92
  GI50: > 100 µM (inactive)
SNB-19
  GI50: > 100 µM (inactive)
HL-60
  GI50: 33 µM (inactive)
OVCAR-8
  GI50: > 100 µM (inactive)
UACC-257
  GI50: > 100 µM (inactive)
Malme-3M
  GI50: > 100 µM (inactive)
SK-OV-3
  GI50: > 100 µM (inactive)
RPMI-8226
  GI50: 52.7 µM (inactive)
M14
  GI50: > 100 µM (inactive)
CCRF-CEM
  GI50: 33.1 µM (inactive)
M19-MEL
  GI50: 49.8 µM (inactive)
OVCAR-4
  GI50: > 100 µM (inactive)
OVCAR-5
  GI50: > 100 µM (inactive)
A498
  GI50: > 100 µM (inactive)
NCI-H460
  GI50: 30.1 µM (inactive)
SF-268
  GI50: > 100 µM (inactive)
HCT-15
  GI50: > 100 µM
K562
  GI50: > 100 µM (inactive)
UO-31
  GI50: > 100 µM (inactive)
KM-20L2
  GI50: > 100 µM (inactive)
SK-MEL-5
  GI50: 48 µM (inactive)
SK-MEL-28
  GI50: > 100 µM (inactive)
MOLT-4
  GI50: 14 µM (inactive)
HT-29
  GI50: > 100 µM (inactive)
U-251
  GI50: 87.3 µM (inactive)
OVCAR-3
  GI50: > 100 µM (inactive)
KM12
  GI50: > 100 µM (inactive)
HOP-18
  GI50: > 100 µM (inactive)
HCT-116
  GI50: > 100 µM (inactive)
DMS-273
  GI50: 60.5 µM (inactive)
ACHN
  GI50: 95.7 µM (inactive)
SW-620
  GI50: 87.5 µM (inactive)
NCI-H226
  GI50: > 100 µM (inactive)
HOP-62
  GI50: > 100 µM (inactive)

## COc1ccc(N2C(Cl)C(=O)C2c2c[nH]c3ccccc23)cc1 (stereo not given)
LXFL 529
  GI50: > 100 µM (inactive)
DMS-114
  GI50: > 100 µM (inactive)
COLO 205
  GI50: > 100 µM (inactive)
NCI-H23
  GI50: > 100 µM (inactive)
SN12C
  GI50: > 100 µM (inactive)
TK-10
  GI50: > 100 µM (inactive)
XF498
  GI50: > 100 µM (inactive)
SNB-75
  GI50: > 100 µM (inactive)
NCI-H522
  GI50: > 100 µM (inactive)
IGROV-1
  GI50: > 100 µM (inactive)
A549
  GI50: > 100 µM (inactive)
EKVX
  GI50: > 100 µM (inactive)
SR
  GI50: > 100 µM (inactive)
SF-295
  GI50: > 100 µM (inactive)
UACC-62
  GI50: > 100 µM (inactive)
SK-MEL-2
  GI50: > 100 µM (inactive)
SF-539
  GI50: > 100 µM (inactive)
HOP-92
  GI50: 28.3 µM (inactive)
SNB-19
  GI50: 91.8 µM (inactive)
HL-60
  GI50: > 100 µM (inactive)
OVCAR-8
  GI50: > 100 µM (inactive)
UACC-257
  GI50: > 100 µM (inactive)
Malme-3M
  GI50: 72.6 µM (inactive)
SK-OV-3
  GI50: > 100 µM (inactive)
RPMI-8226
  GI50: > 100 µM (inactive)
M14
  GI50: > 100 µM (inactive)
CCRF-CEM
  GI50: > 100 µM (inactive)
M19-MEL
  GI50: > 100 µM (inactive)
OVCAR-4
  GI50: > 100 µM (inactive)
OVCAR-5
  GI50: 80.9 µM (inactive)
NCI-H460
  GI50: > 100 µM (inactive)
SF-268
  GI50: > 100 µM (inactive)
K562
  GI50: 94.8 µM (inactive)
UO-31
  GI50: 51.9 µM (inactive)
KM-20L2
  GI50: > 100 µM (inactive)
SK-MEL-5
  GI50: > 100 µM (inactive)
SK-MEL-28
  GI50: > 100 µM (inactive)
MOLT-4
  GI50: > 100 µM (inactive)
HT-29
  GI50: > 100 µM (inactive)
U-251
  GI50: > 100 µM (inactive)
OVCAR-3
  GI50: > 100 µM (inactive)
KM12
  GI50: > 100 µM (inactive)
HCT-116
  GI50: > 100 µM (inactive)
SW-620
  GI50: > 100 µM (inactive)
RXF 393
  GI50: > 100 µM (inactive)
HOP-62
  GI50: > 100 µM (inactive)
